Measured values published in patent US5100907A, “Hydantoin esters” (Lonza, Inc., priority 1990, dated 1992).

How the values were obtained:
Aspergillus niger = experiment: Antimicrobial study against Aspergillus niger (mold); type: cell-based; conditions: methylolated C8/10 10,800 ppm, methylolated lauric 11,400 ppm, DMDMH 3,000 ppm, others 14,700 ppm
Procedure: (§1) The antimicrobial properties of typical esters (I) and (Ia) were tested by minimum inhibitory concentration (MIC) tests, along with certain known substances, against […] strains of organisms: a mold, Aspergillus niger; a gram-positive bacteria, Staphylococcus aureus; and two gram-negative bacteria, Escherichia coli and Pseudomonas aeruginosa. […] These tests were used to determine any effect on biocidal activity of the varying chain length of the ester.
(§2) The known substances, on which identical tests were also performed, included the biocide, dimethyloldimethylhydantoin or DMDMH (iv), and a series of three surfactants, i.e., the three common emulsifiers, sodium lauryl sulfate (SLS); ethylene glycol distearate (EGDS), in the form of the commercial product PEGOSPERSE 50 DS (Lonza Inc.); and polyoxyethylene 20 sorbitan monoleate (POE 20 SMO), in the form of the commercial product GLYCOSPERSE 0 20 (Lonza Inc.).
(§3) The tests entailed contaminating a preexisting micro-colony with a known quantity (ppm, concentration) of test material. Each colony was then examined periodically over a one week period. […] A test was deemed non-efficacious when there was no decrease in colony size. In an effort to avoid any possible solvent effect, the micro-study was conducted in a totally aqueous solvent system without use of any other solvent.

Escherichia coli = experiment: Antimicrobial study against Escherichia coli (gram-negative bacteria); type: cell-based; conditions: methylolated C8/10 10,800 ppm, methylolated lauric 11,400 ppm, DMDMH 3,000 ppm, others 14,700 ppm
Procedure: as §1, §2, §3

[1] = as formaldehyde donor; cited from earlier work
Pseudomonas aeruginosa = experiment: Antimicrobial study against Pseudomonas aeruginosa (gram-negative bacteria); type: cell-based; conditions: methylolated C8/10 10,800 ppm, methylolated lauric 11,400 ppm, DMDMH 3,000 ppm, others 14,700 ppm
Procedure: as §1, §2, §3

Staphylococcus aureus = experiment: Antimicrobial study against Staphylococcus aureus (gram-positive bacteria); type: cell-based; conditions: methylolated C8/10 10,800 ppm, methylolated lauric 11,400 ppm, DMDMH 3,000 ppm, others 14,700 ppm
Procedure: as §1, §2, §3

[2] = tested on: mold, and gram-positive and gram-negative bacteria; experiment: Antimicrobial tests, overall biocidal effectiveness; type: cell-based; conditions: under the test conditions
Procedure: as §1, §2, §3

[3] = Surface tension tests (cmc, Gibbs' Free Energy of Micellation); type: physicochemical
Procedure: Surface tension tests were conducted as to the relationship between the fatty acid aliphatic chain length, i.e. number of carbon atoms, in the esters (I), and their performance as surfactants. The length of the hydrophobic chain of a molecule is considered the major contributing factor to the critical micelle concentration (cmc) value of a surfactant. This value is obtained from surface tension measurement data. The lower the cmc, the more readily the material will form micelles.
The Gibbs' Free Energy of Micellation (ΔG°cmc) and the ΔG°cmc per --CH2 -- can be determined if the cmc is known.
The ΔG°cmc is a calculated value obtained by Equation 1.
ΔG°cmc =2.303RT(log cmc-log[water]) (Eq. 1)
The ΔG°cmc per --CH2 -- value is obtained from the slope of the straight line curve formed from a plot of ΔG°cmc versus the number of carbon atoms in the lipophilic chain.
The cmc values were based on surface tension tests conducted with a tensiometer (Cenco-DuNoug Precision Model #70535, direct reading model) to determine the upward surface tension at the liquid-air surface of the test ester/water solution. The methods used to calibrate the tensiometer, calculate the "correction factor" (used to correct for the difference between the apparent and true surface tension), and collect data, were conducted as described in the manual for the instrument. Sodium lauryl sulfate (SLS) and distilled water were used as reference samples.
On completing data collection, plots of the surface tension (dynes) versus -log of the concentration (mols/liter) were prepared, using only the "corrected" surface tension value, obtained by applying the noted "correction factor" in each case. The […] was found by multiplying the "apparent" surface tension by a calculated correction factor.
The critical micelle concentration (cmc) for each sample was determined by locating the point in the curve where the surface tension first begins to level off, per a known procedure.

Row | Structure (SMILES) | Colony Count (Aspergillus niger; Day 0) | Colony Count (Aspergillus niger; Day 1) | Colony Count (Aspergillus niger; Day 2) | Colony Count (Aspergillus niger; Day 3) | Colony Count (Aspergillus niger; Day 7) | Colony Count (Escherichia coli; Day 0) | Colony Count (Escherichia coli; Day 1) | Colony Count (Escherichia coli; Day 2) | Colony Count (Escherichia coli; Day 3) | Colony Count (Escherichia coli; Day 7) | Colony Count (Pseudomonas aeruginosa; Day 0) | Colony Count (Pseudomonas aeruginosa; Day 1) | Colony Count (Pseudomonas aeruginosa; Day 2) | Colony Count (Pseudomonas aeruginosa; Day 3) | Colony Count (Pseudomonas aeruginosa; Day 7) | Colony Count (Staphylococcus aureus; Day 0) | Colony Count (Staphylococcus aureus; Day 1) | Colony Count (Staphylococcus aureus; Day 2) | Colony Count (Staphylococcus aureus; Day 3) | Colony Count (Staphylococcus aureus; Day 7) | also measured
1 | CC1(C)C(=O)N(CO)C(=O)N1CO [DMDMH (iv), 1,3-dihydroxymethyl-5,5-dimethyl-1,3-diazacyclopentane-2,4-dione, reference compound] | 400 × 1,000 | < 0.03 × 1,000 | < 0.01 × 1,000 | < 0.01 × 1,000 | < 0.01 × 1,000 | TNC | TNC | TNC | < 0.01 × 1,000 | < 0.01 × 1,000 | TNC | TNC | < 0.01 × 1,000 | < 0.01 × 1,000 | < 0.01 × 1,000 | TNC | TNC | TNC | < 0.01 × 1,000 | < 0.01 × 1,000 | minimum inhibitory concentration (MIC) [1]: 0.1%
2 | CCCCCCCCCCCCOS(=O)(=O)[O-].[Na+] [SLS, Sodium lauryl sulfate, reference compound] | 600 × 1,000 | 2,000 × 1,000 | 300 × 1,000 | 160 × 1,000 | 200 × 1,000 | 8,000 × 1,000 | 20 × 1,000 | TNC | 160 × 1,000 | 60 × 1,000 | 4,100 × 1,000 | 500 × 1,000 | TNC | 30 × 1,000 | 50 × 1,000 | 2,000 × 1,000 | 3,000 × 1,000 | TNC | 450 × 1,000 | < 0.01 × 1,000 | biocidal effectiveness [2]: none of the three known long aliphatic chain containing emulsifiers, sodium lauryl sulfate, ethylene glycol distearate and POE 20 sorbitan monoleate, was effective as a biocide; ΔG°cmc ([3]; Table 6): -5.552 kcal/mol; ΔG°cmc (Gibbs' Free Energy of Micellation) ([3]; calculated from cmc by Eq. 1, T=298° K.): -5.552 kcal/mol; cmc (critical micelle concentration) ([3]; ester/water solution): 4.4 × 10^-3 mol dm^-3
3 | CC1(C)C(=O)NC(=O)N1CO [MDMH (iii), 1-hydroxymethyl-5,5-dimethyl-1,3-diazacyclopentane-2,4-dione] |  |  |  |  |  |  |  |  |  |  |  |  |  |  |  |  |  |  |  |  | minimum inhibitory concentration (MIC) [1]: 0.2%
4 | CCCCCCCCCCCCCCCCCC(=O)OCCOC(=O)CCCCCCCCCCCCCCCCC [EGDS, ethylene glycol distearate, reference compound] | 2,000 × 1,000 | 500 × 1,000 | 300 × 1,000 | 200 × 1,000 | 700 × 1,000 | 2,000 × 1,000 | TNC | TNC | TNC | TNC | 3,000 × 1,000 | TNC | TNC | 2,500 × 1,000 | TNC | 600 × 1,000 | 350 × 1,000 | TNC | TNC | 2,000 × 1,000 | biocidal effectiveness [2]: none of the three known long aliphatic chain containing emulsifiers, sodium lauryl sulfate, ethylene glycol distearate and POE 20 sorbitan monoleate, was effective as a biocide
